Values after ≈ are worked out from the molar mass of the structure shown. Where a SMILES comes first, the peptide text is derived from it.
Columns and labels:
MRSA 3126 = assay type: cell-based, Staphylococcus aureus; conditions: 3126
How it was run: (§1)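 Broth microdilution in MH medium: bacterial strains diluted to 2×10^6 CFU were mixed with equal volumes of peptide serially diluted twofold in MH medium.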

MRSA 3114 = assay type: cell-based, Staphylococcus aureus; conditions: 3114
How it was run: as §1

E. coli [1] = assay: microbe, parasite or virus in culture; assay type: cell-based, Escherichia coli; conditions: 16 h
How it was run: as §1

MDREC 1229 [2] = assay: microbe, parasite or virus in culture; assay type: cell-based, Escherichia coli
How it was run: as §1

MDREC 1229 [3] = assay: MIC of antibiotic during combined treatment with antimicrobial peptide; assay type: cell-based, Escherichia coli
How it was run: (§2)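 Strains in MH medium at 2×10^6 CFU/ml were mixed with peptide diluted stepwise (2:1) from its MIC, then antibiotic dilutions in MH medium were added to give the antibiotic MIC. The reversed set-up, peptide titrated against fixed antibiotic, gave the peptide MIC.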

S. aureus = assay: microbe, parasite or virus in culture; assay type: cell-based, Staphylococcus aureus
How it was run: as §1

A. baumannii = assay: MIC of antimicrobial peptide during combined treatment with antibiotic; assay type: cell-based, Acinetobacter baumannii
How it was run: as §2

MDRAB 12035 = assay: as above; assay type: cell-based, Acinetobacter baumannii
How it was run: as §2

S. epidermidis = assay: microbe, parasite or virus in culture; assay type: cell-based, Staphylococcus epidermidis
How it was run: as §1

E. coli [4] = assay: MIC of antibiotic during combined treatment with antimicrobial peptide; assay type: cell-based, Escherichia coli; conditions: for Antibiotic MIC, Erythromycin / Antibiotic MIC, Linezolid / Antibiotic MIC, Vancomycin: E. coli
How it was run: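 Read-out is the MIC of each combined solution, obtained from MH-medium dilutions of antibiotic added well by well, with a reversed-condition run as well.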

MDREC 1238 = assay type: cell-based, Escherichia coli
How it was run: as §1

MDRST 8009 = assay type: cell-based, Salmonella typhimurium; conditions: agent alone
How it was run: as §1

MDRAB 12036 = assay type: cell-based, Acinetobacter baumannii
How it was run: as §1

P. aeruginosa = assay: microbe, parasite or virus in culture; assay type: cell-based, Pseudomonas aeruginosa
How it was run: as §1

MDRST 8007 = assay: Minimal inhibitory concentration (MIC), single agent; assay type: cell-based, Salmonella typhimurium; conditions: agent alone
How it was run: as §1

S. typhimurium = assay: microbe, parasite or virus in culture; assay type: cell-based, Salmonella typhimurium
How it was run: as §1

[5] = peptide treatment concentration 1 μg/ml
[6] = peptide treatment concentration 2 μg/ml
[7] = peptide treatment concentration 4 μg/ml
[8] = peptide treatment concentration 6 μg/ml
[9] = peptide treatment concentration 8 μg/ml
[10] = peptide treatment concentration 16 μg/ml
[11] = peptide treatment concentration 32 μg/ml
[12] = peptide treatment concentration 64 μg/ml
[13] = erythromycin 4 μg/ml (Conc./MIC 1/8)
[14] = erythromycin 8 μg/ml (Conc./MIC 1/4)
[15] = erythromycin 16 μg/ml (Conc./MIC 1/2)
[16] = erythromycin 32 μg/ml (Conc./MIC 1)
[17] = vancomycin 512 μg/ml (Conc./MIC 1/2)
[18] = vancomycin 1024 μg/ml (Conc./MIC 1)

Structure (SMILES): CC[C@H](C)[C@H](NC(=O)[C@H](CCCCN)NC(=O)[C@H](Cc1c[nH]c2ccccc12)NC(=O)[C@@H](N)CCCNC(=N)N)C(=O)N[C@@H](Cc1ccccc1)C(=O)N[C@@H](CCCCN)C(=O)N[C@@H](CCCCN)C(=O)N[C@H](C(=O)N1CCC[C@H]1C(=O)N[C@@H](CCCCN)C(=O)N[C@@H](Cc1ccccc1)C(=O)N[C@@H](CC(C)C)C(=O)N[C@@H](Cc1c[nH]cn1)C(=O)N[C@@H](CCC(=O)O)C(=O)N[C@@H](C)C(=O)N[C@@H](CCCCN)C(=O)N[C@@H](CCCCN)C(=O)N[C@@H](Cc1ccccc1)C(N)=O)[C@@H](C)CC [PapMA-11, RWK IFK KIP KFL HEA KKF-NH2] (H-RWKIFKKIPKFLHEAKKF-NH2; N-terminus assumed)
- Minimal inhibitory concentration MIC (MRSA 3126): >128 µg/mL
- Minimal inhibitory concentration MIC (MRSA 3114): >128 µg/mL
- Minimal inhibitory concentration MIC (E. coli [1]): 64 µg/mL (≈ 27.3 µM)
- Minimal inhibitory concentration MIC (MDREC 1229 [2]): 64 µg/mL (≈ 27.3 µM)
- Peptide MIC, peptide alone (MDREC 1229 [2]): 64 µg/mL
- Antibiotic MIC, Erythromycin (MDREC 1229 [3]; [5]): 128 µg/mL
- Antibiotic MIC, Linezolid (MDREC 1229 [3]; [5]): >128 µg/mL
- Antibiotic MIC, Vancomycin (MDREC 1229 [3]; [5]): >128 µg/mL
- Antibiotic MIC, Erythromycin (MDREC 1229 [3]; [6]): 64 µg/mL
- Antibiotic MIC, Linezolid (MDREC 1229 [3]; [6]): >128 µg/mL
- Antibiotic MIC, Vancomycin (MDREC 1229 [3]; [6]): >128 µg/mL
- Antibiotic MIC, Erythromycin (MDREC 1229 [3]; [7]): 16 µg/mL
- Antibiotic MIC, Linezolid (MDREC 1229 [3]; [7]): 128 µg/mL
- Antibiotic MIC, Vancomycin (MDREC 1229 [3]; [7]): >128 µg/mL
- Antibiotic MIC, Erythromycin (MDREC 1229 [3]; [8]): 8 µg/mL
- Antibiotic MIC, Linezolid (MDREC 1229 [3]; [8]): 128 µg/mL
- Antibiotic MIC, Vancomycin (MDREC 1229 [3]; [8]): >128 µg/mL
- Antibiotic MIC, Erythromycin (MDREC 1229 [3]; [9]): 4 µg/mL
- Antibiotic MIC, Linezolid (MDREC 1229 [3]; [9]): 32 µg/mL
- Antibiotic MIC, Vancomycin (MDREC 1229 [3]; [9]): 128 µg/mL
- Antibiotic MIC, Erythromycin (MDREC 1229 [3]; [10]): 1 µg/mL
- Antibiotic MIC, Linezolid (MDREC 1229 [3]; [10]): 16 µg/mL
- Antibiotic MIC, Vancomycin (MDREC 1229 [3]; [10]): 16 µg/mL
- Antibiotic MIC, Erythromycin (MDREC 1229 [3]; [11]): 0.5 µg/mL
- Antibiotic MIC, Linezolid (MDREC 1229 [3]; [11]): 8 µg/mL
- Antibiotic MIC, Vancomycin (MDREC 1229 [3]; [11]): 8 µg/mL
- Antibiotic MIC, Erythromycin (MDREC 1229 [3]; [12]): 0 µg/mL
- Antibiotic MIC, Linezolid (MDREC 1229 [3]; [12]): 0 µg/mL
- Antibiotic MIC, Vancomycin (MDREC 1229 [3]; [12]): 0 µg/mL
- Minimal inhibitory concentration MIC (S. aureus): >128 µg/mL
- Peptide MIC during treatment with antibiotic (A. baumannii; [13]): 4 µg/mL
- Peptide MIC during treatment with antibiotic (A. baumannii; [14]): 4 µg/mL
- Peptide MIC during treatment with antibiotic (A. baumannii; [15]): 2 µg/mL
- Peptide MIC during treatment with antibiotic (A. baumannii; [16]): 0 µg/mL
- Peptide MIC during treatment with antibiotic (A. baumannii; linezolid 32 μg/ml (Conc./MIC 1/8)): 8 µg/mL
- Peptide MIC during treatment with antibiotic (A. baumannii; linezolid 64 μg/ml (Conc./MIC 1/4)): 4 µg/mL
- Peptide MIC during treatment with antibiotic (A. baumannii; linezolid […] (Conc./MIC 1)): 0 µg/mL
- Peptide MIC during treatment with antibiotic (A. baumannii; linezolid […] (Conc./MIC 1/2)): 2 µg/mL
- Peptide MIC during treatment with antibiotic (A. baumannii; [17]): 0.25 µg/mL
- Peptide MIC during treatment with antibiotic (A. baumannii; [18]): 0 µg/mL
- Peptide MIC during treatment with antibiotic (A. baumannii; vancomycin […] (Conc./MIC 1/4)): 0.5 µg/mL
- Peptide MIC during treatment with antibiotic (A. baumannii; vancomycin […] (Conc./MIC 1/8)): 2 µg/mL
- Peptide MIC during treatment with erythromycin (MDRAB 12035; [13]): 4 µg/mL
- Peptide MIC during treatment with erythromycin (MDRAB 12035; [14]): 4 µg/mL
- Peptide MIC during treatment with erythromycin (MDRAB 12035; [15]): 2 µg/mL
- Peptide MIC during treatment with erythromycin (MDRAB 12035; [16]): 0 µg/mL
- Peptide MIC during treatment with linezolid (MDRAB 12035; linezolid 64 μg/ml (Conc./MIC 1/8)): 4 µg/mL
- Peptide MIC during treatment with linezolid (MDRAB 12035; linezolid 512 μg/ml (Conc./MIC 1)): 0 µg/mL
- Peptide MIC during treatment with linezolid (MDRAB 12035; linezolid […] (Conc./MIC 1/2)): 2 µg/mL
- Peptide MIC during treatment with linezolid (MDRAB 12035; linezolid […] (Conc./MIC 1/4)): 2 µg/mL
- Peptide MIC during treatment with vancomycin (MDRAB 12035; [17]): 1 µg/mL
- Peptide MIC during treatment with vancomycin (MDRAB 12035; [18]): 1 µg/mL
- Peptide MIC during treatment with vancomycin (MDRAB 12035; vancomycin […] (Conc./MIC 1/4)): 2 µg/mL
- Peptide MIC during treatment with vancomycin (MDRAB 12035; vancomycin […] (Conc./MIC 1/8)): 2 µg/mL
- Minimal inhibitory concentration MIC (S. epidermidis): >128 µg/mL
- Synergistic effect of antibacterial activity with existing antibiotics compared with PapMA-1 (E. coli [4]; E. coli and MDREC1229): level similar to that of the PapMA-1 peptide
- Antibiotic MIC, Erythromycin (E. coli [4]; erythromycin combined with peptide at 1 μg/ml): 64 µg/mL
- Antibiotic MIC, Erythromycin (E. coli [4]; erythromycin combined with peptide at 2 μg/ml): 64 µg/mL
- Antibiotic MIC, Erythromycin (E. coli [4]; erythromycin combined with peptide at 4 μg/ml): 16 µg/mL
- Antibiotic MIC, Erythromycin (E. coli [4]; erythromycin combined with peptide at 6 μg/ml): 4 µg/mL
- Antibiotic MIC, Erythromycin (E. coli [4]; erythromycin combined with peptide at 8 μg/ml): 1 µg/mL
- Antibiotic MIC, Erythromycin (E. coli [4]; erythromycin combined with peptide at 16 μg/ml): 0.25 µg/mL
- Antibiotic MIC, Erythromycin (E. coli [4]; erythromycin combined with peptide at 32 μg/ml): 0.125 µg/mL
- Antibiotic MIC, Erythromycin (E. coli [4]; erythromycin combined with peptide at 64 μg/ml): 0 µg/mL
- Antibiotic MIC, Linezolid (E. coli [4]; linezolid combined with peptide at 1 μg/ml): >128 µg/mL
- Antibiotic MIC, Linezolid (E. coli [4]; linezolid combined with peptide at 2 μg/ml): 128 µg/mL
- Antibiotic MIC, Linezolid (E. coli [4]; linezolid combined with peptide at 4 μg/ml): 128 µg/mL
- Antibiotic MIC, Linezolid (E. coli [4]; linezolid combined with peptide at 6 μg/ml): 32 µg/mL
- Antibiotic MIC, Linezolid (E. coli [4]; linezolid combined with peptide at 8 μg/ml): 32 µg/mL
- Antibiotic MIC, Linezolid (E. coli [4]; linezolid combined with peptide at 16 μg/ml): 16 µg/mL
- Antibiotic MIC, Linezolid (E. coli [4]; linezolid combined with peptide at 32 μg/ml): 8 µg/mL
- Antibiotic MIC, Linezolid (E. coli [4]; linezolid combined with peptide at 64 μg/ml): 0 µg/mL
- Antibiotic MIC, Vancomycin (E. coli [4]; vancomycin combined with peptide at 1 μg/ml): >128 µg/mL
- Antibiotic MIC, Vancomycin (E. coli [4]; vancomycin combined with peptide at 2 μg/ml): >128 µg/mL
- Antibiotic MIC, Vancomycin (E. coli [4]; vancomycin combined with peptide at 4 μg/ml): >128 µg/mL
- Antibiotic MIC, Vancomycin (E. coli [4]; vancomycin combined with peptide at 6 μg/ml): 32 µg/mL
- Antibiotic MIC, Vancomycin (E. coli [4]; vancomycin combined with peptide at 8 μg/ml): 16 µg/mL
- Antibiotic MIC, Vancomycin (E. coli [4]; vancomycin combined with peptide at 16 μg/ml): 8 µg/mL
- Antibiotic MIC, Vancomycin (E. coli [4]; vancomycin combined with peptide at 32 μg/ml): 4 µg/mL
- Antibiotic MIC, Vancomycin (E. coli [4]; vancomycin combined with peptide at 64 μg/ml): 0 µg/mL
- Minimal inhibitory concentration MIC (MDREC 1238): 64 µg/mL (≈ 27.3 µM)
- Minimal inhibitory concentration MIC (MDRST 8009): 64 µg/mL (≈ 27.3 µM)
- Minimal inhibitory concentration MIC (MDRAB 12036): 64 µg/mL (≈ 27.3 µM)
- Minimal inhibitory concentration MIC (P. aeruginosa): 128 µg/mL (≈ 54.6 µM)
- Minimal inhibitory concentration MIC (MDRST 8007): 64 µg/mL (≈ 27.3 µM)
- Minimal inhibitory concentration MIC (S. typhimurium): 64 µg/mL (≈ 27.3 µM)
